From patent publication US11919900B1 (priority 2023, dated 2024)
In brackets after ≈: the same amount, converted by molar mass.

Columns and labels:
[1] = test system: multidrug-resistant (MDR) strains of Mycobacterium tuberculosis; assay: microbe, parasite or virus in culture; type: cell-based; settings: for MIC: Mycobacterium tuberculosis, 192 h, read-out: Antitubercular activity against Mycobacterium tuberculosis MDR (MIC)
[2] = test system: extensively drug resistant (XDR) strains of Mycobacterium tuberculosis; assay: microbe, parasite or virus in culture; type: cell-based; settings: 192 h, read-out: Antitubercular activity against Mycobacterium tuberculosis XDR (MIC)

| Compound | MIC [1] | MIC [2] | Antitubercular activity against Mycobacterium tuberculosis MDR (MIC) ([1]; MDR-TB, drug resistance at least to isoniazid and rifampicin, REMA, 8 days at 37° C. then resazurin overnight) |
| --- | --- | --- | --- |
| COC(=O)c1c(C(=O)OC)c2c(Br)cc3ccccc3n2c1C(=O)c1ccc(Br)cc1 [QUIN-KNV5, Dimethyl 4-bromo-1-(4-bromobenzoyl)pyrrolo[1,2-a]quinoline-2,3-dicarboxylate] | 1 µg/mL (≈ 1.83 µM) | 2 µg/mL (≈ 3.67 µM) | – |
| COC(=O)c1c(C(=O)OC)c2c(Br)cc3ccccc3n2c1C(=O)c1ccccc1 [QUIN-KNV11, Dimethyl 1-benzoyl-4-bromopyrrolo[1,2-a]quinoline-2,3-dicarboxylate] | 16 µg/mL (≈ 34.3 µM) | – | – |
| Ethyl 4-bromo-1-(2-nitrobenzoyl)pyrrolo[1,2-a]quinoline-3-carboxylate [QUIN-KNV12] | – | – | 8 µg/mL |
| COC(=O)c1c(C(=O)OC)c2c(Br)cc3ccccc3n2c1C(=O)c1ccc(F)cc1 [QUIN-KNV7, Dimethyl 4-bromo-1-(4-fluorobenzoyl)pyrrolo[1,2-a]quinoline-2,3-dicarboxylate] | 16 µg/mL (≈ 33 µM) | – | – |
| COC(=O)c1c(C(=O)OC)c2c(Br)cc3ccccc3n2c1C(=O)c1ccc(C#N)cc1 [QUIN-KNV9, Dimethyl 4-bromo-1-(4-cyanobenzoyl)pyrrolo[1,2-a]quinoline-2,3-dicarboxylate] | 8 µg/mL (≈ 16.3 µM) | 16 µg/mL (≈ 32.6 µM) | – |
| COC(=O)c1c(C(=O)OC)c2c(Br)cc3ccccc3n2c1C(=O)c1ccc(Cl)cc1 [QUIN-KNV3, Dimethyl 4-bromo-1-(4-chlorobenzoyl)pyrrolo[1,2-a]quinoline-2,3-dicarboxylate] | 4 µg/mL (≈ 7.99 µM) | 4 µg/mL (≈ 7.99 µM) | – |
| CCOC(=O)c1cc(C(=O)c2ccc(F)cc2)n2c1c(Br)cc1ccccc12 [QUIN-KNV8, Ethyl 4-bromo-1-(4-fluorobenzoyl)pyrrolo[1,2-a]quinoline-3-carboxylate] | 4 µg/mL (≈ 9.09 µM) | 4 µg/mL (≈ 9.09 µM) | – |
| CCOC(=O)c1cc(C(=O)c2ccc(OC)cc2)n2c1c(Br)cc1ccccc12 [QUIN-KNV2, Ethyl 4-bromo-1-(4-methoxybenzoyl)pyrrolo[1,2-a]quinoline-3-carboxylate] | 4 µg/mL (≈ 8.84 µM) | 4 µg/mL (≈ 8.84 µM) | – |
| CCOC(=O)c1cc(C(=O)c2ccc(Cl)cc2)n2c1c(Br)cc1ccccc12 [QUIN-KNV4, Ethyl 4-bromo-1-(4-chlorobenzoyl)pyrrolo[1,2-a]quinoline-3-carboxylate] | 8 µg/mL (≈ 17.5 µM) | – | – |
| CCOC(=O)c1cc(C(=O)c2ccc(C#N)cc2)n2c1c(Br)cc1ccccc12 [QUIN-KNV10, Ethyl 4-bromo-1-(4-cyanobenzoyl)pyrrolo[1,2-a]quinoline-3-carboxylate] | 16 µg/mL (≈ 35.8 µM) | – | – |
| CCOC(=O)c1cc(C(=O)c2ccc(Br)cc2)n2c1c(Br)cc1ccccc12 [QUIN-KNV6, Ethyl 4-bromo-1-(4-bromobenzoyl)pyrrolo[1,2-a]quinoline-3-carboxylate] | 4 µg/mL (≈ 7.98 µM) | 4 µg/mL (≈ 7.98 µM) | – |
| COC(=O)c1c(C(=O)OC)c2c(Br)cc3ccccc3n2c1C(=O)c1ccc(OC)cc1 [QUIN-KNV1, Dimethyl 4-bromo-1-(4-methoxybenzoyl)pyrrolo[1,2-a]quinoline-2,3-dicarboxylate] | 2 µg/mL (≈ 4.03 µM) | 2 µg/mL (≈ 4.03 µM) | – |
